Assay results: US20160228444A1, “NUCLEOSIDE ANALOGS AND USES THEREOF” (Ramot at Tel-Aviv University Ltd., priority 2015, published 2016)
Read-outs that look alike come from different tables or passages of the source.

How the values were obtained:
[1] = tested on: pH2AX in U251 cells; experiment: Phosphorylated H2AX (Western blot), 24 or 48 hours; format: cell-based, human; details: FIG. 13A
Protocol: (§1) The effects of the abovementioned HDAC inhibitors on DNA damage and repair were then assessed by evaluating changes in levels of phosphorylated histone H2AX (pH2AX), a marker of DNA double-strand breaks, and Rad51, a marker of homologous recombination-guided DNA repair of double-strand breaks [Nagathihalli & Nagaraju, Biochim Biophys Acta 2011, 1816:209-218; Rogakou et al., J Biol Chem 1998, 273:5858-5868].
(§2) U251 and H9C2 cells were treated with the HDAC inhibitors for 24 or 48 hours, and then subjected to Western blot analysis.

[2] = tested on: fibrous collagen; experiment: Fibrosis in tumor, heart and kidney of U251 xenograft mice (Picrosirius Red / Fast Green); format: in vivo
Protocol: AN446 was tested in vivo using a xenograft of glioblastoma (U251 cells) in mice.

[3] = tested on: MDA-231 cells; experiment: Median-effect drug interaction, Hoechst viability, 72 h; format: cell-based, human; details: for IC50: Homo sapiens
Protocol: (§3) The ratios of the drug combination were based on the ratio of their IC50 of each drug alone. Cell viability was determined by MTT assay, as described hereinabove. The drugs were added to the cells and incubated for 72 h.
(§4) Drug interaction in adherent cells was evaluated as above except that the viability was determined by Hoechst assay.

[4] = tested on: T47D cells; experiment: as above; format: cell-based, human; details: for IC50: Homo sapiens
Protocol: as §3, §4

[5] = tested on: NCI-N87 gastric carcinoma cells; experiment: as above; format: cell-based, human; details: for IC50: Homo sapiens
Protocol: as §3, §4

[6] = tested on: TLR4; experiment: TLR4 expression in LPS-treated THP1 cells (anti-TLR4 antibodies, FACS); format: cell-based; details: 1 μg/ml LPS, AN446 20 or 40 μM, FIG. 7A
Protocol: (§5) The effect of AN446 on inflammation-associated pathways was evaluated in the monocytic THP1 cell line and in the MDA-MB-231 breast carcinoma cell line. Supernatants of treated THP1 cells were collected and IL-6, IL-10 and TNF-α concentrations were quantified by ELISA (R&D systems). TLR4 expression in THP1 cells was assessed using fluorescent anti-TLR4 antibodies and FACS analysis. In addition, gene expression for MCP-1, TNF-α and TLR4 in MDA-MB-231 was evaluated by qRT-PCT, following treatment with AN446 and/or paclitaxel.

[7] = tested on: 10 different cancer cell lines; experiment: Viability assay (Hoechst for adherent cells, MTT for suspension cells), 72 h
Protocol: Hoechst assay: 22RV-1, MCF-7, MCF-7DX, 4T1, U251, and T47D cells (3×10^3 cells/well) and NCI-N87 (8×10^3 cells/well) were seeded in tissue culture in growth medium for 24 h in 96-well plates (in triplicate) and then exposed to different concentrations (titration) of the tested drug for 72 h at 37° C. The plates were then rinsed with PBS and fixed with 100 ml of 70% ethanol for 30 min. […] The fluorescence was measured (excitation at 390 nm and emission at 460 nm) with a Synergy III Fluorometer-Elisa reader (BioTek Instruments, Inc. Germany). The viability of cells grown in suspension was measured by the MTT assay. HL-60, Daudi and Jurkat cells were seeded (5×10^3 cells/well) in 96-well plates in growth medium and immediately exposed to different concentrations (titration) of the tested drugs (in triplicate). After 72 h incubation, the MTT reagent in PBS (10 ml of 5 mg/ml) was added to the cell suspension and incubated for an additional 3 h. Then, 100 ml of 0.04 M HCl in isopropanol was added and the absorbance at 570 nm measured using a Synergy III Fluorometer-spectrophotometer ELISA reader.

[8] = tested on: primary rat astrocytes; format: cell-based; details: noncancerous cells; combination compared to Dox alone; FIG. 1C
Protocol: Cell viability by flow cytometry analysis (FACS) analysis was determined using the Mebcyto apoptosis kit (MBL-Japan). The cell lines 4T1, U251 (2×10^5 cells/well), astrocytes and the cardiomyoblastic cell line H9C2 (5×10^5 cells/well) were seeded in six-well plates. Following treatment they were trypsinized, washed with PBS, resuspended in […] of binding buffer and double-stained with annexin V-FITC and propidium iodide (PI) according to the manufacturer's instructions. The stained cells were subjected to FACS analyses (Calibur cytometer, Becton Dickinson) where 30,000 cells were allowed to flow for each determination point and the percentage of cells in each state (viability or death) was defined by their distribution in fluorescence dot-plots using WinMdi 2.8 software (Scripps Research Institute, La-Jolla, USA).
The apoptotic effect of AN446, Dox and their combination was evaluated in U251 and 4T1 cancer cells, and in the non-cancerous rat cardiomyoblast cell line (H9C2) and in primary rat astrocytes, using procedures previously described for AN7 [Tarasenko et al., Invest New Drugs 2012, 30:130-143].

[9] = tested on: TNF-α; experiment: TNF-α in supernatant of LPS-treated THP1 cells (ELISA); format: cell-based; details: 1 μg/ml LPS, AN446 20 or 40 μM, FIG. 7B
Protocol: as §5

[10] = tested on: U251 human glioblastoma xenograft; experiment: Glioblastoma xenograft model (survival, body weight, tumor volume, tumor weight, Ki-67); details: for tumor volume of vehicle-treated group relative to treated group: from day 11, FIG. 3C
Protocol: Xenograft of glioblastoma: 8- to 10-week-old male Hsd athymic FOXN (Harlan, Jerusalem, Israel) were inoculated sc in the flanks with 5×10^6 U251 cells. Tumor length (L) and width (W) were measured with a caliper twice weekly. Tumor volumes were calculated according to the formula: (L×W2)/2. When the tumor was established (volume of 50-100 mm^3) the mice were randomly divided into six groups treated with: vehicle control (saline); ip Dox 4 mg/kg once weekly; po AN446 25 mg/kg thrice a week; po AN7 50 mg/kg thrice a week; combination of AN446+Dox (4 mg/kg ip Dox once a week and 25 mg/kg po AN446 thrice a week); AN7+Dox (4 mg/kg ip Dox once a week and 50 mg/kg po AN7 thrice weekly). Untreated, non-bearing tumor naive mice were maintained under the same conditions. The experiment was terminated after 25 treatment days, the mice were sacrificed under CO2 and their tumors and hearts were removed, weighed and divided into parts dedicated for immunohistochemistry (IHC) and the rest were frozen (−80° C.) for Western blot and Quantitative PCR (qRT-PCR) analyses.
Inactivation of avidin-biotin nonspecific binding was prevented by a blocking kit, according to the manufacturer's protocol (Vector Laboratories). […] The secondary antibody was biotin conjugated goat anti-rabbit or anti-mouse IgG. Slides were then stained with the ABC peroxidase system, developed with diaminobenzidine (DAB) (Vector Laboratories) and counterstained with hematoxylin (Bio-Optica, Milano, Italy). The slides were examined using an Olympus BX 52 light microscope, and images were taken with an Olympus DP50 digital camera system.
Mice were implanted subcutaneously with U251 cells and when the tumors reached 50-100 mm^3 treatments were initiated. Survival was evaluated by the Kaplan-Meier end-product analysis, where treatment failure (the experimental end points) was a loss of ˜20% body weight, or a tumor volume of >1 cm^3.

[11] = tested on: H9C2 cells; experiment: ROS production (DCF-DA, flow cytometry); format: cell-based, rat; details: FIG. 1D
Protocol: (§6) ROS were measured in live cells by monitoring the oxidation of DCF-DA (a cell-permeable probe), which undergoes deacetylation by cellular esterases and fluoresces upon oxidation by ROS. U251 MG (2×10^5 cells/six-well plates), astrocytes or H9C2 (5×10^5 cells/six-well plates) were treated as specified, incubated with […] DCF-DA for 30 min at 37° C., washed with PBS and analyzed (10^4 cells) by flow cytometry using a 488 nm excitation beam (Calibur cytometer, Becton Dickinson). The percentage of cells stained positively for DCF was determined with CellQuest software (BD Biosciences, San Jose, Calif., USA).
(§7) To gain insights into the mechanism of cell-type specific effects, ROS production in cancer cells and in non-cancer cells after treatment for 5-6 h with AN446, Dox and AN446+Dox, were assessed by staining the cells with the membrane-permeable fluorescent dye DCF-DA.

[12] = tested on: astrocytes; experiment: ROS production (DCF-DA, flow cytometry); format: cell-based, rat; details: FIG. 1D
Protocol: as §6, §7

[13] = tested on: TNF-α; experiment: TNF-α gene expression in MDA-MB-231 cells (qRT-PCR); format: cell-based, human; details: combination with paclitaxel, FIG. 7C
Protocol: as §5

[14] = tested on: IL-6; experiment: IL-6 in supernatant of LPS-treated THP1 cells (ELISA); format: cell-based; details: 1 μg/ml LPS, AN446 20 or 40 μM, FIG. 7B
Protocol: as §5

[15] = tested on: U251 glioblastoma cells; experiment: ROS production (DCF-DA, flow cytometry); format: cell-based, human; details: 5-6 h treatment, FIG. 1D
Protocol: as §6, §7

[16] = tested on: pH2AX in H9C2 cells; experiment: Phosphorylated H2AX (Western blot), 24 or 48 hours; format: cell-based, rat; details: FIG. 13B
Protocol: as §1, §2

CCCC(CCC)C(=O)Nc1nc2c(ncn2COCCOC(=O)C(CCC)CCC)c(=O)[nH]1 [AN446, N-valproyl-9-(2-valproyloxy)ethoxymethyl-guanine]
pH2AX levels in U251 cancer cells [1]: considerably more effective than the other HDAC inhibitors at increasing pH2AX levels after 48 hours | doxorubicin-induced fibrosis in the heart ([2]; heart, co-administration with doxorubicin): attenuated the doxorubicin-induced fibrosis | doxorubicin-induced fibrosis in the kidneys ([2]; kidneys, co-administration with doxorubicin): attenuated the doxorubicin-induced fibrosis | fibrosis in the tumor ([2]; tumor, single agent, FIG. 8A): reduced fibrosis | IC50 ([3]; MDA-MB-231, MDA-231, in combination with Dox, read-out: com IC50): 17 µM | IC50 ([3]; MDA-MB-231, MDA-231, in combination with paclitaxel, read-out: com IC50): 14 ± 0.3 µM | IC50 ([3]; MDA-MB-231, MDA-231, single agent, Table 2, read-out: IC50): 38 µM | IC50 ([3]; MDA-MB-231, MDA-231, single agent, Table 3, read-out: IC50): 37.8 ± 1.1 µM | CI (combination index with paclitaxel) ([3]; MDA-231): 0.8 | CI (combination index with paclitaxel) [4]: 1.4 | IC50 ([4]; read-out: com IC50, T47D, in combination with Dox): 5.2 µM | IC50 ([4]; read-out: com IC50, T47D, in combination with paclitaxel): 13.6 ± 0.6 µM | IC50 ([4]; single agent, Table 2): 21.7 µM | IC50 ([4]; single agent, Table 3): 23.6 ± 0.6 µM | IC50 ([5]; NCI-N87, NCI-N87, single agent, Table 2): 20 ± 3 µM | IC50 ([5]; NCI-N87, NCI-N87, single agent, Table 3): 20 ± 3 µM | IC50 ([5]; NCI-N87, read-out: com IC50, NCI-N87, in combination with Dox): 6 µM | IC50 ([5]; NCI-N87, read-out: com IC50, NCI-N87, in combination with paclitaxel): 9.1 ± 0.4 µM | CI (combination index with paclitaxel) ([5]; NCI-N87): 0.76 | LPS-induced expression of TLR4 [6]: suppressed | IC50 ([7]; 72 h, read-out: IC50 (cell viability)): 20 to 46 µM | potency in reducing the viability of cancer cells relative to AN7 ([7]; from IC50 values, FIG. 1A): 2-5 fold | viability / mortality of astrocytes [8]: did not substantially affect the viability | LPS-induced expression of TNF-α [9]: suppressed | survival of mice when added to Dox treatment ([10]; added to Dox 4 mg/kg ip once a week, day 25, FIG. 3A): 80% | body weight loss when added to Dox treatment ([10]; added to Dox 4 mg/kg, FIG. 3B): significant attenuation of body weight loss | Ki-67 positive (proliferating) cells in tumors ([10]; in combination with Dox, FIG. 3F): reduced the proliferating cells to a level significantly lower than any of the single drug treatments | tumor volume of vehicle-treated group relative to treated group ([10]; in combination with Dox): 3 fold | Ki-67 positive cells in tumors ([10]; single agent vs vehicle, FIGS. 3E, 3F): considerably more Ki-67 positive cells were detected in tumors of the vehicle-treated mice | tumor volume of vehicle-treated group relative to treated group ([10]; single agent): 2 fold | survival of mice until end of experiment (day 25) ([10]; single agent: AN446 25 mg/kg or AN7 50 mg/kg po thrice weekly, Dox 4 mg/kg ip once a week, FIG. 3A): 100% | ROS production and mortality in Dox-treated H9C2 cells ([11]; added to 200 nM Dox): attenuated ROS production and mortality | ROS production in H9C2 cells ([11]; single agent): did not induce ROS production | ROS production and mortality in Dox-treated astrocytes ([12]; added to 200 nM Dox): attenuated ROS production and mortality | ROS production in astrocytes ([12]; single agent): did not induce ROS production | paclitaxel-induced increase in expression of TNF-α [13]: significantly attenuated | LPS-induced expression of IL-6 [14]: suppressed | percentage of ROS positive U251 cells [15]: increased the percentage of ROS positive U251 glioblastoma cells significantly more than Dox | pH2AX levels in cardiomyocytes (H9C2) [16]: did not increase pH2AX levels
